Target: Mitogen-activated protein kinase 14 (Homo sapiens, UniProt Q16539)
Assay: Enzyme Inhibition Assay

Sequence of Mitogen-activated protein kinase 14 (Q16539 whole entry): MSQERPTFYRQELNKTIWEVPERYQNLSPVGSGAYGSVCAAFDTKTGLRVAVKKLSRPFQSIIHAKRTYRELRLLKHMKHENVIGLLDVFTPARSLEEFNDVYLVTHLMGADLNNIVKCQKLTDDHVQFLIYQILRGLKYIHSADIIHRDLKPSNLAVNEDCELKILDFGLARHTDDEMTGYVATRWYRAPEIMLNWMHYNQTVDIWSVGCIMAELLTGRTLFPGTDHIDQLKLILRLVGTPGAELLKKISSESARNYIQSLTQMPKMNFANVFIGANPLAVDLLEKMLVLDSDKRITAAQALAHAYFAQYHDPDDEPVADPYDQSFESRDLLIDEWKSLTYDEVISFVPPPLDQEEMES

With `CCn1c(=O)n(CC)c2cc(-c3[nH]c(C4CCNCC4)nc3-c3cccc(C)c3)ccc21` [1,3-diethyl-5-[4-(3-methylphenyl)-2-(piperidin-4-yl)-1H-imidazol-5-yl]-2,3-dihydro-1H-1,3-benzodiazol-2-one] the IC50 was 70 nM.

Source: BindingDB's records for doi:10.1016/j.bmcl.2003.12.023 (Pfizer, 2004)
